Experimental data published in patent US12295396B2, “Antagonists of T2R54 and compositions and uses thereof” (Firmenich Incorporated, priority 2018, dated 2025).
Where two headings read alike, the source gives them in different places.

Biological target: T1, hT2R54 (Homo sapiens, UniProt P59534)
T1 construct: expressed in transfected cells; it overexpresses a promiscuous G protein
T1 sequence (P59534 1-338): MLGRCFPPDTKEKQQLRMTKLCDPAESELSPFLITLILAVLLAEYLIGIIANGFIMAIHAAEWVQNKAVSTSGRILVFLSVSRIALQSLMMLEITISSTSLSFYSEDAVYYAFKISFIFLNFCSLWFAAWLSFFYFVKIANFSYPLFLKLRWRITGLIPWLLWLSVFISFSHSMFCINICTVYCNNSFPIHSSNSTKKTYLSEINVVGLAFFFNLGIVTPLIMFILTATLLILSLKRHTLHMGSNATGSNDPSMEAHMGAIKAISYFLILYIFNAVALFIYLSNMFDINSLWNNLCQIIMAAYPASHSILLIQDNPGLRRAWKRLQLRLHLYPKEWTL
Assay: Cell-based assay for measuring hT2R54 inhibition (FLIPR calcium, Fluo4AM, acetaminophen as bitter agonist)
In short: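 Cells stably co-expressing hT2R54 and a promiscuous G protein were loaded with Fluo4AM and given acetaminophen dose series, alone or with fixed concentrations of test compound. On FLIPR, baseline was recorded for 10 s and fluorescence for 3 min after addition. IC50 is the concentration halving the acetaminophen-alone response.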

[1] = Table 7, cells stably expressing hT2R54 and a promiscuous G protein, read-out: hT2R54 IC50
[2] = given in example heading, read-out: IC50

CC(=O)c1cc2c(cc1NC(=O)CN1CCC(N(C)C(=O)c3cccnc3)CC1)OCO2 [compound 182]
IC50 (Table 6, cells stably expressing hT2R54 and a promiscuous G protein, read-out: hT2R54 IC50): 455 nM

CC(=O)c1cc2c(cc1NC(=O)CN(C)C1CCN(C(=O)c3ccco3)CC1)OCO2 [compound 183, N-(6-Acetylbenzo[d][1,3]dioxol-5-yl)-2-((1-(furan-2-carbonyl)piperidin-4-yl)(methyl)amino)acetamide]
IC50 [1]: 61 nM

CC(=O)c1cc2c(cc1NC(=O)CN(C)C1CCN(C(=O)CC(C)C)CC1)OCO2 [compound 184, N-(6-Acetylbenzo[d][1,3]dioxol-5-yl)-2-(methyl(1-(3-methylbutanoyl)piperidin-4-yl)amino)acetamide]
IC50 [1]: 98 nM

CC(=O)c1cc2c(cc1NC(=O)CN(C)C1CCCN(C(=O)CC(C)C)C1)OCO2 (centres unmarked) [compound 185]
IC50 [1]: 50 nM

CC(=O)c1cc2c(cc1NC(=O)CN(C)C1CCCN(C(=O)c3ccco3)C1)OCO2 (centres unmarked) [compound 186]
IC50 [1]: 20 nM

CC(=O)c1cc2c(cc1NC(=O)CN(C)C1CCCN(C(=O)c3cccnc3)C1)OCO2 (centres unmarked) [compound 187]
IC50 [1]: 100 nM

CCOC(=O)N1CCCC(N(C)CC(=O)Nc2cc3c(cc2C(C)=O)OCO3)C1 (centres unmarked) [compound 188]
IC50 [1]: 90 nM

CCNC(=O)N1CCCC(N(C)CC(=O)Nc2cc3c(cc2C(C)=O)OCO3)C1 (centres unmarked) [compound 189]
IC50 [1]: 30 nM

CCCS(=O)(=O)N1CCCC(N(C)CC(=O)Nc2cc3c(cc2C(C)=O)OCO3)C1 (centres unmarked) [compound 190]
IC50 [1]: 40 nM

CCOC(=O)C1CN(C(=O)c2ccco2)CCN1CC(=O)Nc1cc2c(cc1C(C)=O)OCO2 (centres unmarked) [compound 191, Ethyl 1-(2-((6-Acetylbenzo[d][1,3]dioxol-5-yl)amino)-2-oxoethyl)-4-(furan-2-carbonyl)piperazine-2-carboxylate]
IC50 [2]: 16 nM

CCOC(=O)C1CN(C(=O)CC(C)C)CCN1CC(=O)Nc1cc2c(cc1C(C)=O)OCO2 (centres unmarked) [compound 192, Ethyl 1-(2-((6-Acetylbenzo[d][1,3]dioxol-5-yl)amino)-2-oxoethyl)-4-(3-methylbutanoyl)piperazine-2-carboxylate]
IC50 [2]: 57 nM

CC(=O)c1cc2c(cc1NC(=O)CC1CCCN(C(=O)CC(C)C)C1)OCO2 (centres unmarked) [compound 193, N-(6-acetylbenzo[d][1,3]dioxol-5-yl)-2-(1-(3-methylbutanoyl)piperidin-3-yl)acetamide]
IC50 (Table 8, read-out: hT2R54 IC50): 17 nM

CC(=O)c1cc2c(cc1NC(=O)CC1CCCN(C(=O)c3ccco3)C1)OCO2 (centres unmarked) [compound 194, N-(6-Acetylbenzo[d][1,3]dioxol-5-yl)-2-(1-(furan-2-carbonyl)piperidin-3-yl)acetamide]
IC50 (Table 8, read-out: hT2R54 IC50): 6 nM

CC(=O)c1cc2c(cc1NC(=O)CC1CCCN(C(=O)c3cccs3)C1)OCO2 (centres unmarked) [compound 195, N-(6-Acetylbenzo[d][1,3]dioxol-5-yl)-2-(1-(thiophene-2-carbonyl)piperidin-3-yl)acetamide]
IC50 (Table 8, read-out: hT2R54 IC50): 8 nM

CC(=O)c1cc2c(cc1NC(=O)CC1CCCN(C(=O)c3ccoc3)C1)OCO2 (centres unmarked) [compound 196, N-(6-Acetylbenzo[d][1,3]dioxol-5-yl)-2-(1-(furan-3-carbonyl)piperidin-3-yl)acetamide]
IC50 (Table 8, read-out: hT2R54 IC50): 184 nM

CC(=O)c1cc2c(cc1NC(=O)CC1CCN(C(=O)c3ccco3)CC1)OCO2 [compound 197, N-(6-Acetylbenzo[d][1,3]dioxol-5-yl)-2-(1-(furan-2-carbonyl)piperidin-4-yl)acetamide]
IC50 (Table 8, read-out: hT2R54 IC50): 6 nM

CC(=O)c1cc2c(cc1NC(=O)CC1CCN(C(=O)CC(C)C)CC1)OCO2 [compound 198, N-(6-acetylbenzo[d][1,3]dioxol-5-yl)-2-(1-(3-methylbutanoyl)piperidin-4-yl)acetamide]
IC50 (Table 8, read-out: hT2R54 IC50): 45 nM

CC(=O)c1cc2c(cc1NC(=O)CC1CCN(C(=O)c3cccs3)CC1)OCO2 [compound 199, N-(6-Acetylbenzo[d][1,3]dioxol-5-yl)-2-(1-(thiophene-2-carbonyl)piperidin-4-yl)acetamide]
IC50 (Table 8, read-out: hT2R54 IC50): 12 nM

CC(=O)c1cc2c(cc1NC(=O)CC1CCN(C(=O)c3ccoc3)CC1)OCO2 [compound 200, N-(6-Acetylbenzo[d][1,3]dioxol-5-yl)-2-(1-(furan-3-carbonyl)piperidin-4-yl)acetamide]
IC50 (Table 8, read-out: hT2R54 IC50): 149 nM

CC(=O)c1cc2c(cc1NC(=O)CC1CCN(C(=O)c3cnn(C)c3)CC1)OCO2 [compound 201, N-(6-Acetylbenzo[d][1,3]dioxol-5-yl)-2-(1-(1-methyl-1H-pyrazole-4-carbonyl)piperidin-4-yl)acetamide]
IC50 (Table 8, read-out: hT2R54 IC50): 339 nM

CC(=O)c1cc2c(cc1NC(=O)CC1CCCN(C(C)=O)C1)OCO2 (centres unmarked) [compound 202]
IC50 (Table 8, read-out: hT2R54 IC50): 35 nM

CCC(=O)N1CCCC(CC(=O)Nc2cc3c(cc2C(C)=O)OCO3)C1 (centres unmarked) [compound 203]
IC50 (Table 8, read-out: hT2R54 IC50): 17 nM

CCCC(=O)N1CCCC(CC(=O)Nc2cc3c(cc2C(C)=O)OCO3)C1 (centres unmarked) [compound 204]
IC50 (Table 8, read-out: hT2R54 IC50): 16 nM

CC(=O)c1cc2c(cc1NC(=O)CC1CCCN(C(=O)C(C)C)C1)OCO2 (centres unmarked) [compound 205]
IC50 (Table 8, read-out: hT2R54 IC50): 12 nM

CC(=O)c1cc2c(cc1NC(=O)C[C@@H]1CCCN(C(=O)CC(C)C)C1)OCO2 [compound 206]
IC50 (Table 8, read-out: hT2R54 IC50): 25 nM

CC(=O)c1cc2c(cc1NC(=O)CC1CCCN(C(=O)CC(C)(C)C)C1)OCO2 (centres unmarked) [compound 207]
IC50 (Table 8, read-out: hT2R54 IC50): 360 nM

CCC(C)C(=O)N1CCCC(CC(=O)Nc2cc3c(cc2C(C)=O)OCO3)C1 (centres unmarked) [compound 208]
IC50 (Table 8, read-out: hT2R54 IC50): 170 nM

CC(=O)c1cc2c(cc1NC(=O)CC1CCCN(C(=O)C3CCCO3)C1)OCO2 (centres unmarked) [compound 209]
IC50 (Table 8, read-out: hT2R54 IC50): 56 nM

CC(=O)c1cc2c(cc1NC(=O)CC1CCCN(C(=O)C3CCOC3)C1)OCO2 (centres unmarked) [compound 210]
IC50 (Table 8, read-out: hT2R54 IC50): 1340 nM
